Source: patent publication US20250360143A1, “COMPOSITIONS AND METHODS FOR PHA[…] OF STROKE AND […] REPERFUSION INJURY” (priority 2022, published 2025)
Structures can show the parent of a compound that is named as a salt. Where two headings read alike, the source gives them in different places.

What was measured:
Assay in all cases: cell-based
hP2X1R = target: T1, hP2X1R (Homo sapiens, UniProt P51575); conditions: for inhibition at 30 µM: CHO-K1, percent inhibition at 30 μM, agonist α,β-MeATP 1.0 μM, read-out: hP2X1R % inhib.
T1 construct: expressed in transfected cells; host or cells: CHO-K1
T1 sequence (P51575 1-399): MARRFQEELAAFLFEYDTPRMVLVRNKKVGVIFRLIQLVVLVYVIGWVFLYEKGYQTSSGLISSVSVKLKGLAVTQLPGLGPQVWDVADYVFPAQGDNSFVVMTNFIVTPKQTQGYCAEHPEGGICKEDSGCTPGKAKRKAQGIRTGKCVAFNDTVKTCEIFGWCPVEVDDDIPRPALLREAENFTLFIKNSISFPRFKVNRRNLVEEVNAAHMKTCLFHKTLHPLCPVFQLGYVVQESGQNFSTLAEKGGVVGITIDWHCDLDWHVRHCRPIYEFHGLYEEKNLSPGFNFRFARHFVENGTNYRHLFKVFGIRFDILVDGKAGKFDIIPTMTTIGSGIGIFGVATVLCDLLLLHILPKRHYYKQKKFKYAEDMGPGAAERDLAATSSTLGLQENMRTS

hP2X2/3R = target: T2, hP2X2/3R (Homo sapiens, UniProt P56373+Q9UBL9); type: cell-based; conditions: for inhibition at 30 µM: CHO-K1, read-out: hP2X2/3R % inhib.
T2 construct: expressed in transfected cells; host or cells: CHO-K1
T2 sequence (Q9UBL9 1-471): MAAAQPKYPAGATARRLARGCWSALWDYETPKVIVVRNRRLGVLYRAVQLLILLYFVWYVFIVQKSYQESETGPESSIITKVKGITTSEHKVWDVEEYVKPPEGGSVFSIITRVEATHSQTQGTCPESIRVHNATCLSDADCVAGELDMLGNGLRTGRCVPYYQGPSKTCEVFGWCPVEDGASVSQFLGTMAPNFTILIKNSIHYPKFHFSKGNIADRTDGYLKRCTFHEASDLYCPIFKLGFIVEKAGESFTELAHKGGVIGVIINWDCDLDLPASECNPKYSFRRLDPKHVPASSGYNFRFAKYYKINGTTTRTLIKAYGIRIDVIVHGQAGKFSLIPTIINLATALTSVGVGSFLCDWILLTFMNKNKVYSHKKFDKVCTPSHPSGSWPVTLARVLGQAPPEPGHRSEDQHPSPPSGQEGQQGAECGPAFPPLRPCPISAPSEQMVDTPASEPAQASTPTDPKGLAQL
T2 sequence (P56373 1-397): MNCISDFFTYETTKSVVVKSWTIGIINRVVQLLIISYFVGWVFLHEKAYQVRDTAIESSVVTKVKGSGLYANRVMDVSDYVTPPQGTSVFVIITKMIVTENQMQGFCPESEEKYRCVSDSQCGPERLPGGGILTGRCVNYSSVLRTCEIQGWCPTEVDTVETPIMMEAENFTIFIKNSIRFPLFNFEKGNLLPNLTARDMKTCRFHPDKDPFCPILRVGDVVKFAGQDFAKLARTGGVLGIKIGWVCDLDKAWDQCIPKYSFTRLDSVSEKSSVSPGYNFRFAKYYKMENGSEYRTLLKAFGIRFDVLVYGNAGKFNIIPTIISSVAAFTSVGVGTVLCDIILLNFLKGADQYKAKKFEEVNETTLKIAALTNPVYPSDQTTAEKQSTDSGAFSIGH

hP2X3R = target: T3, hP2X3R (Homo sapiens, UniProt P56373); type: cell-based; conditions: for inhibition at 30 µM: CHO-K1, read-out: hP2X3R % inhib.
T3 construct: expressed in transfected cells; host or cells: CHO-K1
T3 sequence (P56373 1-397): T2 sequence (P56373 1-397)

hP2X4R = target: T4, hP2X4R (Homo sapiens, UniProt Q99571); type: cell-based; conditions: for inhibition at 30 µM: HEK293, read-out: hP2X4R % inhib.
T4 construct: expressed in transfected cells; host or cells: HEK-293
T4 sequence (Q99571 1-388): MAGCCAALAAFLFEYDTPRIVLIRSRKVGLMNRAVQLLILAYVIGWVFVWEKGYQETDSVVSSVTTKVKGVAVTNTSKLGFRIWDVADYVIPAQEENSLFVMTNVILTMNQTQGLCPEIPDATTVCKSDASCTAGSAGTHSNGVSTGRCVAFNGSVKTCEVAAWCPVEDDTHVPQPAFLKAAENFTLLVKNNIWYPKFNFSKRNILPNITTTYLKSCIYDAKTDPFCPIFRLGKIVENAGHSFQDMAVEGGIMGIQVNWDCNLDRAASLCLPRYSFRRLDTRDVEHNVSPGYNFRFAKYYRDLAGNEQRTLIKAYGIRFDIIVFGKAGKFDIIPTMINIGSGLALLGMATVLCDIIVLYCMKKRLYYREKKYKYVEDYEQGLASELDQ

[1] = percent inhibition at 30 μM, agonist α,β-MeATP 5.0 μM
[2] = percent inhibition at 30 μM, agonist α,β-MeATP 1.0 μM

Compound | hP2X1R % inhib. (hP2X1R) [%] | hP2X2/3R % inhib. (hP2X2/3R) [%] | hP2X3R % inhib. (hP2X3R) [%] | hP2X4R inhibitory activity relative to 22a, in words (hP2X4R) | inhibition at 30 µM (hP2X1R) [%] | inhibition at 30 µM (hP2X2/3R; [1]) [%] | inhibition at 30 µM (hP2X3R; [2]) [%] | other results
CCN(CC)CC.[N-]=[N+]=NCc1ccc2c(Br)cc3c(c2c1)NC(=O)CC(=O)N3c1cccc(-c2noc(=S)[nH]2)c1 [Compound 21h, 10-(azidomethyl)-7-bromo-5-(3-(5-thioxo-4,5-dihydro-1,2,4-oxadiazol-3-yl)phenyl)-1,5-dihydro-2H-naphtho[1,2-b][1,4]diazepine-2,4(3H)-dione triethylamine salt] | −13 | −4 | 15 | inactive |  |  |  | hP2X4R % inhib. (hP2X4R): 8%
CCCCC#Cc1cc2c(c3ccccc13)NC(=O)CC(=O)N2c1cccc(-c2noc(=S)[nH]2)c1 [Compound 21o, 7-(Hex-1-yn-1-yl)-5-(3-(5-thioxo-4,5-dihydro-1,2,4-oxadiazol-3-yl)phenyl)-1,5-dihydro-2H-naphtho[1,2-b][1,4]diazepine-2,4(3H)-dione] |  |  |  |  | 16 | 1 | 18 | inhibition at 30 µM (hP2X4R): 15%
CCc1cc2c(c3ccccc13)NC(=O)CC(=O)N2c1cccc(-c2noc(=S)[nH]2)c1 [Compound 21p, 7-Ethyl-5-(3-(5-thioxo-4,5-dihydro-1,2,4-oxadiazol-3-yl)phenyl)-1,5-dihydro-2H-naphtho[1,2-b][1,4]diazepine-2,4(3H)-dione triethylamine salt] |  |  |  |  | 6 | 10 | 6 | IC50 (hP2X4R; agonist CTP 10 μM (~EC80)): 5.13 µM
CC(=O)NCc1ccc2ccc3c(c2c1)NC(=O)CC(=O)N3c1cccc(-c2noc(=S)[nH]2)c1.CCN(CC)CC [Compound 21i, N-((2,4-Dioxo-5-(3-(5-thioxo-4,5-dihydro-1,2,4-oxadiazol-3-yl)phenyl)-2,3,4,5-tetrahydro-1H-naphtho[1,2-b][1,4]diazepin-10-yl)methyl) acetamide triethylamine salt] |  |  |  | inactive |  |  |  | hP2X2/3R % inhib. (hP2X2/3R; [1]): −5%; hP2X3R % inhib. (hP2X3R; [2]): 9%; hP2X4R % inhib. (hP2X4R; percent inhibition at 30 μM, agonist CTP 10 μM): 16%
CCN(CC)CC.O=C1CC(=O)N(c2cccc(-c3noc(=S)[nH]3)c2)c2cc(-c3ccccc3)c3ccccc3c2N1 [Compound 211, 7-Phenyl-5-(3-(5-thioxo-4,5-dihydro-1,2,4-oxadiazol-3-yl)phenyl)-1,5-dihydro-2H-naphtho[1,2-b][1,4]diazepine-2,4(3H)-dione triethylamine salt] | 14 | 10 | 11 |  |  |  |  | IC50 (hP2X4R): 20.7 µM
CCN(CC)CC.Cc1ccc2c(Br)cc3c(c2c1)NC(=O)CC(=O)N3c1cccc(-c2noc(=S)[nH]2)c1 [Compound 21e, 7-Bromo-10-methyl-5-(3-(5-thioxo-4,5-dihydro-1,2,4-oxadiazol-3-yl)phenyl)-1,5-dihydro-2H-naphtho[1,2-b][1,4]diazepine-2,4(3H)-dione triethylamine salt] | −2 | −5 | 17 | only moderately reduced activity |  |  |  | IC50 (hP2X4R): 11.8 µM
2′,3′-O-Trinitrophenyl-adenosine-5′-triphosphate [TNP-ATP, reference compound] |  |  |  |  |  |  |  | IC50 (hP2X1R): 120 nM; IC50 (hP2X2/3R): 64 nM; IC50 (hP2X3R): 18 nM
Cc1cc(-c2noc(=S)[nH]2)cc(N2C(=O)CC(=O)Nc3c2ccc2ccccc32)c1 [Compound 21r, 5-(3-Methyl-5-(5-thioxo-4,5-dihydro-1,2,4-oxadiazol-3-yl)phenyl)-1,5-dihydro-2H-naphtho[1,2-b][1,4]diazepine-2,4(3H)-dione] |  |  |  |  | 16 | 5 | 12 | IC50 (hP2X4R; agonist CTP 10 μM (~EC80)): 14 µM
O=C1CC(=O)N(c2cncc(-c3noc(=S)[nH]3)c2)c2ccc3ccccc3c2N1 [Compound 21t, 5-(5-(5-Thioxo-4,5-dihydro-1,2,4-oxadiazol-3-yl)pyridin-3-yl)-1,5-dihydro-2H-naphtho[1,2-b][1,4]diazepine-2,4(3H)-dione triethylamine salt] |  |  |  | reduce | 15 | 25 | 6 | IC50 (hP2X4R; agonist CTP 10 μM (~EC80)): 14.6 µM
O=C1CC(=O)N(c2cccc(-c3noc(=S)[nH]3)c2)c2cc(C#Cc3ccccc3)c3ccccc3c2N1 [Compound 21m, 7-(Phenylethynyl)-5-(3-(5-thioxo-4,5-dihydro-1,2,4-oxadiazol-3-yl)phenyl)-1,5-dihydro-2H-naphtho[1,2-b][1,4]diazepine-2,4(3H)-dione] |  |  |  |  | 14 | 5 | 7 | inhibition at 30 µM (hP2X4R): -4%
O=C1CC(=O)N(c2cccc(-c3noc(=S)[nH]3)n2)c2ccc3ccccc3c2N1 [Compound 21v, 5-(6-(5-Thioxo-4,5-dihydro-1,2,4-oxadiazol-3-yl)pyridin-2-yl)-1,5-dihydro-2H-naphtho[1,2-b][1,4]diazepine-2,4(3H)-dione triethylamine salt] |  |  |  | reduce | ≤ 31 | 15 | 17 | IC50 (hP2X4R; agonist CTP 10 μM (~EC80)): 6.48 µM
CCN(CC)CC.NCc1ccc2ccc3c(c2c1)NC(=O)CC(=O)N3c1cccc(-c2noc(=S)[nH]2)c1 [Compound 21q, 10-(Aminomethyl)-5-(3-(5-thioxo-4,5-dihydro-1,2,4-oxadiazol-3-yl)phenyl)-1,5-dihydro-2H-naphtho[1,2-b][1,4]diazepine-2,4(3H)-dione triethylamine salt] | 8 | 0 | 9 |  |  |  |  | hP2X4R % inhib. (hP2X4R): 9%
CCN(CC)CC.[N-]=[N+]=NCc1ccc2c3c(ccc2c1)N(c1cccc(-c2noc(=S)[nH]2)c1)C(=O)CC(=O)N3 [Compound 21j, 9-(Azidomethyl)-5-(3-(5-thioxo-4,5-dihydro-1,2,4-oxadiazol-3-yl)phenyl)-1,5-dihydro-2H-naphtho[1,2-b][1,4]diazepine-2,4(3H)-dione triethylamine salt] | −5 | 2 | 0 | destabilizing |  |  |  | IC50 (hP2X4R): 21.3 µM
CCN(CC)CC.[N-]=[N+]=NCc1ccc2ccc3c(c2c1)NC(=O)CC(=O)N3c1cccc(-c2noc(=S)[nH]2)c1 [Compound 21g, 10-(azidomethyl)-5-(3-(5-thioxo-4,5-dihydro-1,2,4-oxadiazol-3-yl)phenyl)-1,5-dihydro-2H-naphtho[1,2-b][1,4]diazepine-2,4(3H)-dione triethylamine salt] | 8 | 4 | 13 |  |  |  |  | hP2X4R % inhib. (hP2X4R): 6%
O=C1CC(=O)N(c2cccc(-c3noc(=S)[nH]3)c2)c2cc(C#Cc3cccnc3)c3ccccc3c2N1 [Compound 21n, 7-(Pyridin-3-ylethynyl)-5-(3-(5-thioxo-4,5-dihydro-1,2,4-oxadiazol-3-yl)phenyl)-1,5-dihydro-2H-naphtho[1,2-b][1,4]diazepine-2,4(3H)-dione] |  |  |  |  | 9 | 13 | 9 | inhibition at 30 µM (hP2X4R): 34%
